Type in all cases: ADME
For series [1], the system named is Liver microsome. Description: Retention time in human liver microsomes at 30 uM preincubated for 5 mins prior NADPH addition measured after 50 mins by UPLC-TOFMS analysis. A general note: Liver microsomes are vesicles of endoplasmic reticulum, rich in cytochrome P450 enzymes.
The test system of series [2] is Liver microsome. Description: Drug metabolism in human liver microsomes treated with lopinavir at 30 uM preincubated for 5 mins prior NADPH addition measured after 50 mins by MS/MS spectroscopy.
For series [3], the system named is Plasma. Kind of series: Maximum plasma concentration in healthy human at 400 mg. More on the design: dose 400 mg.
In series [4] the test system is Plasma. Description: Maximum plasma concentration in healthy human at 400 mg co-administered with 50 mg ritonavir. More on the design: dose 400 mg.

Usually Cmax stands for the peak of the concentration-time curve.

`CC(C)[C@@H](C(=O)N[C@@H](Cc1ccccc1)C[C@H](O)[C@H](Cc1ccccc1)NC(=O)/C=N/NC(N)=O)N1CCCNC1=O` gave a Retention_time in the series with Liver microsome [1] of 4.99 min. Moreover, the Drug metabolism entry in the series on Liver microsome [2] is recorded as “metabolite_detected”.
Take `Cc1cccc(C)c1OCC(=O)N[C@@H](Cc1ccccc1)[C@@H](O)C[C@H](Cc1ccccc1)NC(=O)[C@H](C(C)C)N1CCCNC1=O` [LOPINAVIR]: the figures for the maximum concentration (Cmax) with Plasma [3] and with Plasma [4] were 100 ng/mL and 5.5 µg/mL, respectively.

(Values after ChEMBL document CHEMBL3525974 (Drug Metab Dispos, 2012).)
